For one compound, Ki results are on record in BindingDB's records for doi:10.1111/j.1476-5381.1995.tb15922.x (Syntex Discovery Research, 1995).

The target of assay [1] is 5-hydroxytryptamine receptor 4 (Cavia porcellus, UniProt O70528).
The target in assay [2] is T1, 5-hydroxytryptamine receptor 3A (Homo sapiens, UniProt P46098).
T1 sequence (P46098 whole entry): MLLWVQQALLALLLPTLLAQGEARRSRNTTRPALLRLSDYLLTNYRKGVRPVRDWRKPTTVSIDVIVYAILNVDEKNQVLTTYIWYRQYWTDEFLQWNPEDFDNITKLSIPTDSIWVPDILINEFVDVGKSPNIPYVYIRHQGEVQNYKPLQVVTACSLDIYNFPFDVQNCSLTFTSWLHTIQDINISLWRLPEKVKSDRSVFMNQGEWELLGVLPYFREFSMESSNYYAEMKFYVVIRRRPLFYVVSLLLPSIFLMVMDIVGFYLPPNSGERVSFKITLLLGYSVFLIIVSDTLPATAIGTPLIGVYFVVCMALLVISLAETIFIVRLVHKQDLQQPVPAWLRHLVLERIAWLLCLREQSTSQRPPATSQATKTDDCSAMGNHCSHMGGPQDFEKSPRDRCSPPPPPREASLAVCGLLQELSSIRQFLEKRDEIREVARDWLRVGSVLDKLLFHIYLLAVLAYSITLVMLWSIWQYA

The target of assay [3] is D(1A) dopamine receptor (Homo sapiens, UniProt P21728).
Assay [4] concerns the target Glutamate receptor ionotropic, NMDA 1 (Rattus norvegicus, UniProt P35439).
The target in assay [5] is T2, Alpha-1A adrenergic receptor (Homo sapiens, UniProt P35348).
T2 sequence (P35348 whole entry): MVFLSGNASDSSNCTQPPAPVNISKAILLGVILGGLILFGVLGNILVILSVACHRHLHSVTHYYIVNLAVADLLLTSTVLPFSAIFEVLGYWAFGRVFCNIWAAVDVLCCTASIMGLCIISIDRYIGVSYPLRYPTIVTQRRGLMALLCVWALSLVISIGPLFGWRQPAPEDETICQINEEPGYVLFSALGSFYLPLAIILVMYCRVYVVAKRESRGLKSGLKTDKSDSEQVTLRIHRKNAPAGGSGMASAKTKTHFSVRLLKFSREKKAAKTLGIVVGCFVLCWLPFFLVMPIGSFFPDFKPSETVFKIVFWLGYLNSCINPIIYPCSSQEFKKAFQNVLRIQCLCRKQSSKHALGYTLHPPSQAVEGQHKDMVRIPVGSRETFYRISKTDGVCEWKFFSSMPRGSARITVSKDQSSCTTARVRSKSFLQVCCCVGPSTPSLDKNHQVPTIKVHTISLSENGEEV

Assay [6] addresses T3, 5-hydroxytryptamine receptor 2C (Homo sapiens, UniProt P28335).
T3 sequence (P28335 whole entry): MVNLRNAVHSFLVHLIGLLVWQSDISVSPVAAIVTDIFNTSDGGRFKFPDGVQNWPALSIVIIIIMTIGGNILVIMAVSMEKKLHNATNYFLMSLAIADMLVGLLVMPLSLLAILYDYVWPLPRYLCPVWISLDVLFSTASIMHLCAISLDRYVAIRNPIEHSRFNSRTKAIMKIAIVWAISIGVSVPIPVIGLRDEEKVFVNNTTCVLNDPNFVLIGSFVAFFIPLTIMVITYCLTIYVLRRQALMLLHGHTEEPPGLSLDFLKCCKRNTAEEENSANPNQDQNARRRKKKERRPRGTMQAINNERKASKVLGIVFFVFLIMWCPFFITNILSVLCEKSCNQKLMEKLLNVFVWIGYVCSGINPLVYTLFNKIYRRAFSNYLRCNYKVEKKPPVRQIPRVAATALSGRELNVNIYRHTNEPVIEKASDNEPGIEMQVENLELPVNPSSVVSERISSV

The target of assay [7] is T4, B1 bradykinin receptor (Homo sapiens, UniProt P46663).
T4 sequence (P46663 whole entry): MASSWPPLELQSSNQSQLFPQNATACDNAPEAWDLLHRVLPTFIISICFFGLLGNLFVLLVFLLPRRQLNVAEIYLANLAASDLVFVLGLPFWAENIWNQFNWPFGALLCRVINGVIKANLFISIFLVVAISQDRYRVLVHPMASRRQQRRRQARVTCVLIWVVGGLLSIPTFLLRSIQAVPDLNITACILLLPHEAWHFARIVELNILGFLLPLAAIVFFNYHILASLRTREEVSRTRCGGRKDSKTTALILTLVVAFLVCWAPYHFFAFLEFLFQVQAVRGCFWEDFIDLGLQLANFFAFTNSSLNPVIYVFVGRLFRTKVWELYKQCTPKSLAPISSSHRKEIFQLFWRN

Assay [8] concerns the target D(2) dopamine receptor (Homo sapiens, UniProt P14416).
The target of assay [9] is Mu-type opioid receptor (Rattus norvegicus, UniProt P33535).
The target of assay [10] is T5, Type-1 angiotensin II receptor (Xenopus tropicalis, UniProt B3DLC0).
T5 sequence (B3DLC0 whole entry): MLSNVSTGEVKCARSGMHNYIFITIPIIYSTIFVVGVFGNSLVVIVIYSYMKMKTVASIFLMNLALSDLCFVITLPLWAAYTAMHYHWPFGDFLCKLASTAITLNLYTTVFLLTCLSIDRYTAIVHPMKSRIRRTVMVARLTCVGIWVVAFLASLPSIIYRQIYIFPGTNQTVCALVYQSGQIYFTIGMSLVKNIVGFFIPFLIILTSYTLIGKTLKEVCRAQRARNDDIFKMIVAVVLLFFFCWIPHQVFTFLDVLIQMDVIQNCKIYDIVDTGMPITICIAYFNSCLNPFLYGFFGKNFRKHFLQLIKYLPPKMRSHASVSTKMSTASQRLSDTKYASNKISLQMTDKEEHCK

For assay [11], the target named is T6, Muscarinic acetylcholine receptor M2 (Homo sapiens, UniProt P08172).
T6 sequence (P08172 whole entry): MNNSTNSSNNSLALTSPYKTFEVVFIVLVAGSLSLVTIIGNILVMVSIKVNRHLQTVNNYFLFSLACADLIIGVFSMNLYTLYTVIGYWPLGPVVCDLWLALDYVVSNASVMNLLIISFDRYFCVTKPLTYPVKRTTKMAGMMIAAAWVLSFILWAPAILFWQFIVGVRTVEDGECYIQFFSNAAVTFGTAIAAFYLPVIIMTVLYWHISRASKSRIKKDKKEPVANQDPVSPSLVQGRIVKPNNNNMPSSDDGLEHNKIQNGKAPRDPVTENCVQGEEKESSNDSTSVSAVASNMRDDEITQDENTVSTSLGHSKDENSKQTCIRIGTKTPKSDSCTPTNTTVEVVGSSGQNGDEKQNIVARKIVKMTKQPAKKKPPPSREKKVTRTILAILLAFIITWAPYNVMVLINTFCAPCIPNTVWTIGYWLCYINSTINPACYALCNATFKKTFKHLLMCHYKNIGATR

Assay [12] concerns the target T7, Muscarinic acetylcholine receptor M1 (Homo sapiens, UniProt P11229).
T7 sequence (P11229 whole entry): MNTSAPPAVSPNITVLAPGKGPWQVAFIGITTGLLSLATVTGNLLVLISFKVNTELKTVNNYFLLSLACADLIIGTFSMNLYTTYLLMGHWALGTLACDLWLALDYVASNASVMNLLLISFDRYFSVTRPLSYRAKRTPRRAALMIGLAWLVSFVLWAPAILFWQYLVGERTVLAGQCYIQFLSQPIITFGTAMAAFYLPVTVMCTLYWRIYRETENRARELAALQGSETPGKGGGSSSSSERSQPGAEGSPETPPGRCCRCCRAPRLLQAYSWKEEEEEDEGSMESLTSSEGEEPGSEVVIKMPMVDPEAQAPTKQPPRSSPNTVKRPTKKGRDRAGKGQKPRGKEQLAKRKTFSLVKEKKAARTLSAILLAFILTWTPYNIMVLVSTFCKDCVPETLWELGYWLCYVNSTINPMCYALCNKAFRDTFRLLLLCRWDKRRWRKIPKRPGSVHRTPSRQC

Chain of Mu-type opioid receptor (P33535 whole entry): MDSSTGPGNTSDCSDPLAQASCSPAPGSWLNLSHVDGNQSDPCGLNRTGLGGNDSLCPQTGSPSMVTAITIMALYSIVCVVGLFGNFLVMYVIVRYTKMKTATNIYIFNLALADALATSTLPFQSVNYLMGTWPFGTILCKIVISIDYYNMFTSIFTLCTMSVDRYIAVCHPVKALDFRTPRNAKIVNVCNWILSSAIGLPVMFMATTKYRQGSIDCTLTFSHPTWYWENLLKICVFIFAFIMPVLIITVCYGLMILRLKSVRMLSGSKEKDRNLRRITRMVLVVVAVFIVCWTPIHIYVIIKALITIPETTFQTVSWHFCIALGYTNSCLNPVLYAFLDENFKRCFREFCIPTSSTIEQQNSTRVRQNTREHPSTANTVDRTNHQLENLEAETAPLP
Chain of 5-hydroxytryptamine receptor 4 (O70528 whole entry): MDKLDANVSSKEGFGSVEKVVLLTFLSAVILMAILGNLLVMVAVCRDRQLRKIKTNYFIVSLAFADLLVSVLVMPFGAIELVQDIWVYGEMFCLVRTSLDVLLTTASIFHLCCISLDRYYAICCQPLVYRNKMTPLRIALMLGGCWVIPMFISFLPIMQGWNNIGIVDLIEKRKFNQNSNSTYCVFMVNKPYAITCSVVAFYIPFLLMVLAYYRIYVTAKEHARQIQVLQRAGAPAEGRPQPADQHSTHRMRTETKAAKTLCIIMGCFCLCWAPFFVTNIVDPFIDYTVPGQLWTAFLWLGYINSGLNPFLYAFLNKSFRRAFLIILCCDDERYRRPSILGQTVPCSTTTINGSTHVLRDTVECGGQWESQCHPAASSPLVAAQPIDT
Chain of D(2) dopamine receptor (P14416 whole entry): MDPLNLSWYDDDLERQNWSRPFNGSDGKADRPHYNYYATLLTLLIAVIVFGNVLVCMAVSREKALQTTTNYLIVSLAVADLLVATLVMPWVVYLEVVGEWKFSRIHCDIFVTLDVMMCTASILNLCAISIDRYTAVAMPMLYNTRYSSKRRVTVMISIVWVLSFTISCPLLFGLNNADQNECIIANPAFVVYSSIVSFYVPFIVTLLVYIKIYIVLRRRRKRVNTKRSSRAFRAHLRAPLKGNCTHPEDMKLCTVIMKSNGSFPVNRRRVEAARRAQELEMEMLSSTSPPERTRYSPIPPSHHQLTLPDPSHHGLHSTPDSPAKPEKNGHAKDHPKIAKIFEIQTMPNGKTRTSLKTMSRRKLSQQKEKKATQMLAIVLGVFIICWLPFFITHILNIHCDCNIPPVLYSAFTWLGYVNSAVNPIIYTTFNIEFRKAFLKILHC
Chain of D(1A) dopamine receptor (P21728 whole entry): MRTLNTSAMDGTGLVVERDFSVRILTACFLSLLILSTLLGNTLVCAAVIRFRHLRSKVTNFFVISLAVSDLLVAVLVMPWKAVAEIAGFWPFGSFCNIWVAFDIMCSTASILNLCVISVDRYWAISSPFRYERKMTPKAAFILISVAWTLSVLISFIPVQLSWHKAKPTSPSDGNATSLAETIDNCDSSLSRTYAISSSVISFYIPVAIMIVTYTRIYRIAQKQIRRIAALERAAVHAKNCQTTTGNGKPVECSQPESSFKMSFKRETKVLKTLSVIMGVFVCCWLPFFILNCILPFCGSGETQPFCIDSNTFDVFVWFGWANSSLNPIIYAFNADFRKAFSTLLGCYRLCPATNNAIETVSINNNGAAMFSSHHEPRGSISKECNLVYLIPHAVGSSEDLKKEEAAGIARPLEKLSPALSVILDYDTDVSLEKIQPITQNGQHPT

In the case of `COc1cc(COc2cc(N)c(Cl)cc2C(=O)CCC2CCN(CCNS(C)(=O)=O)CC2)cc(OC)c1` [CAS_167710-87-4], the inhibition constant Ki in [1] was determined as 0.00079 µM; in assay [2] it was 1 µM; in [3] it was 1 µM; in assay [4] it was 1 µM; in [5], 0.398 µM; in assay [6], 0.794 µM. Besides, the Ki is more than 10 µM in assay [7]; 1 µM in assay [8]; 1 µM in assay [9]; more than 10 µM in assay [10]; 1 µM in assay [11]; 1 µM in [12].

Usually Ki stands for the equilibrium dissociation constant of an inhibitor or competing ligand from its target. Read a low Ki as tighter binding.
